Among the data in US20110082114A1, “Methods of Treating Aneurysmal Dilatation, Blood Vessel Wall Weakness and Specifically Abdominal Aortic and Thoracic Aneurysm Using Matrix Metalloprotease-2 Inhibitors” (SYMPHONY EVOLUTION, INC., priority 2009, published 2011) are IC50 values, retold here.

The target in this test is T1, mADAM-10 or hADAM-10 (UniProt O14672).
T1 sequence (O14672 1-748): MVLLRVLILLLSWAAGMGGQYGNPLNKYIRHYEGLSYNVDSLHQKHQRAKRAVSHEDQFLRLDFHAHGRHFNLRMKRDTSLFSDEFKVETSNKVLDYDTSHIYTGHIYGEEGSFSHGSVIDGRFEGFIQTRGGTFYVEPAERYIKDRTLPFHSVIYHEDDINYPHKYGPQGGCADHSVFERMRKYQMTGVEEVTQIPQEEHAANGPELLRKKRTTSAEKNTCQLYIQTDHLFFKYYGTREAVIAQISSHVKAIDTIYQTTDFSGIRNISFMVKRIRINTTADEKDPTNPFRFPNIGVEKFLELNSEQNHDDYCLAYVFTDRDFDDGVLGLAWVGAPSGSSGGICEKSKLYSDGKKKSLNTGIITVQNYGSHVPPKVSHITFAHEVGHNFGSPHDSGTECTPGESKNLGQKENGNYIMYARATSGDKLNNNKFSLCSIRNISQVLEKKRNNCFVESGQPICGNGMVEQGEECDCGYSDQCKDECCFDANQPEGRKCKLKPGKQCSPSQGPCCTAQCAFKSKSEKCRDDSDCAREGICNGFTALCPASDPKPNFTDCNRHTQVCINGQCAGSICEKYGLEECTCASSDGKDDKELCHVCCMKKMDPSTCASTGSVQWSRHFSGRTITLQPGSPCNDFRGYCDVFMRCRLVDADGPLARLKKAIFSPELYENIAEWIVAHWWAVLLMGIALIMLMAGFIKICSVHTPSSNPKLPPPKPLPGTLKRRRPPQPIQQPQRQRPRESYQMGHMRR
Description: ADAM-10 enzyme assay (fluorogenic peptide cleavage).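 Further: fluorescence from cleavage of a quenched 10-residue DABCYL/EDANS peptide by 5 nM enzyme in HEPES pH 8.0 buffer, 16 hr at room temperature, compounds serially diluted 100 µM to 0.5 nM.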 The test is classed as biochemical.

Molecules are shown by their SMILES.

Description: mADAM-10 or hADAM-10 activity was measured as the ability to cleave a 10-residue peptide (DABCYL-Leu-Leu-Ala-Gln-Lys-*-Leu-Arg-Ser-Ser-Arg-EDANS). […] Enzyme was diluted to a final active concentration of 5 nM in Buffer A (50 mM HEPES 8.0, 100 mM NaCl, 1 mM CaCl2 and 0.01% NP-40). Serial dilutions for compounds were performed ranging from 100 μM to 0.5 nM using a Beckman Biomek 2000 in polypropylene plates (Greiner). […] This reaction was incubated for 16 hr at RT and fluorescence was read using identical conditions.

The IC50 is the concentration at which inhibition is half-maximal. Take `COCCOC(=O)N1CCN(S(=O)(=O)c2ccc(Oc3ccc(F)cc3)cc2)[C@@H](C(=O)NO)C1` [Entry 1]: the IC50 is below 50 nM. Compound `O=C(NO)[C@H]1CN(C(=O)N2CCOCC2)CCN1S(=O)(=O)c1ccc(Oc2ccc(F)cc2)cc1` [Entry 2] yielded a half-inhibitory concentration (IC50) below 50 nM. As to `COCCOC(=O)N1CCN(S(=O)(=O)c2ccc(Oc3ccc(F)cc3)c(F)c2)[C@@H](C(=O)NO)C1` [Entry 3], the 50% inhibitory concentration (IC50) is below 50 nM. The figure for `COCCOC(=O)N1CCN(S(=O)(=O)c2ccc(Oc3ccc(Cl)cc3)c(F)c2)[C@@H](C(=O)NO)C1` [Entry 4] is below 50 nM; for `COCCOC(=O)N1CCN(S(=O)(=O)c2ccc(Oc3ccc(C#N)cc3)c(F)c2)[C@@H](C(=O)NO)C1` [Entry 5] it is below 50 nM. The figure for `O=C(NO)[C@H]1CN(C(=O)N2CCOCC2)CCN1S(=O)(=O)c1ccc(Oc2ccc(Cl)cc2)c(F)c1` [Entry 6] is below 50 nM; for `N#Cc1ccc(Oc2ccc(S(=O)(=O)N3CCN(C(=O)N4CCOCC4)C[C@@H]3C(=O)NO)cc2F)cc1` [Entry 7] it is below 50 nM.

`O=C(NO)[C@H]1CN(C(=O)N2CCOCC2)CCN1S(=O)(=O)c1ccc(Oc2ccc(F)cc2)c(F)c1` [Entry 8] returned an IC50 below 50 nM. Regarding `CC(C)(C)OC(=O)N1CCN(S(=O)(=O)c2cc(F)c(Oc3ccc(F)cc3)c(F)c2)[C@@H](C(=O)NO)C1` [Entry 9], the IC50 is below 50 nM. Take `COCCOC(=O)N1CCN(S(=O)(=O)c2cc(F)c(Oc3ccc(F)cc3)c(F)c2)[C@@H](C(=O)NO)C1` [Entry 10]: the IC50 is below 50 nM. With `O=C(NO)[C@H]1CNCCN1S(=O)(=O)c1cc(F)c(Oc2ccc(F)cc2)c(F)c1` [Entry 11], the IC50 lay within 50 to 1000 nM. For `O=C(NO)[C@H]1CN(C(=O)N2CCOCC2)CCN1S(=O)(=O)c1cc(F)c(Oc2ccc(F)cc2)c(F)c1` [Entry 12] the value was below 50 nM; for `CCOC(=O)N1CCN(S(=O)(=O)c2cc(F)c(Oc3ccc(F)cc3)c(F)c2)[C@@H](C(=O)NO)C1` [Entry 13], below 50 nM.

In the case of `CN1CCN(S(=O)(=O)c2cc(F)c(Oc3ccc(F)cc3)c(F)c2)[C@@H](C(=O)NO)C1` [Entry 14], the IC50 is 50 to 1000 nM. `CN1CCN(C(=O)N2CCN(S(=O)(=O)c3cc(F)c(Oc4ccc(Cl)cc4)c(F)c3)[C@@H](C(=O)NO)C2)CC1` [Entry 16] gave an IC50 below 50 nM. For `O=C(NO)[C@H]1CN(C(=O)NCCN2CCCC2)CCN1S(=O)(=O)c1cc(F)c(Oc2ccc(Cl)cc2)c(F)c1` [Entry 17] the value was below 50 nM. The figure for `O=C(NO)[C@H]1CN(C(=O)OCCN2CCCC2)CCN1S(=O)(=O)c1cc(F)c(Oc2ccc(Cl)cc2)c(F)c1` [Entry 18] is below 50 nM; for `CNC(=O)CN1CCN(S(=O)(=O)c2cc(F)c(Oc3ccc(Cl)cc3)c(F)c2)[C@@H](C(=O)NO)C1` [Entry 19] it is below 50 nM. For `CN(C)C(=O)CN1CCN(S(=O)(=O)c2cc(F)c(Oc3ccc(Cl)cc3)c(F)c2)[C@@H](C(=O)NO)C1` [Entry 20] the value was below 50 nM. For `O=C(NO)[C@H]1CN(CC(=O)N2CCCC2)CCN1S(=O)(=O)c1cc(F)c(Oc2ccc(Cl)cc2)c(F)c1` [Entry 21], the IC50 was below 50 nM. For `CN1CCC(OC(=O)N2CCN(S(=O)(=O)c3cc(F)c(Oc4ccc(Cl)cc4)c(F)c3)[C@@H](C(=O)NO)C2)CC1` [Entry 22] the value was below 50 nM; for `CCOC(=O)N1CCN(CC(=O)N2CCN(S(=O)(=O)c3cc(F)c(Oc4ccc(Cl)cc4)c(F)c3)[C@@H](C(=O)NO)C2)CC1` [Entry 23], below 50 nM; for `CN1CCN(CC(=O)N2CCN(S(=O)(=O)c3cc(F)c(Oc4ccc(Cl)cc4)c(F)c3)[C@@H](C(=O)NO)C2)CC1` [Entry 24], below 50 nM. For `O=C(NO)[C@H]1CN(C(=O)CN2CCOCC2)CCN1S(=O)(=O)c1cc(F)c(Oc2ccc(Cl)cc2)c(F)c1` [Entry 25] the value was below 50 nM.

As to `O=C(NO)[C@H]1CN(C(=O)CN2CCCCC2)CCN1S(=O)(=O)c1cc(F)c(Oc2ccc(Cl)cc2)c(F)c1` [Entry 26], the IC50 was below 50 nM. For `O=C(NO)[C@H]1CN(C(=O)OCCN2CCCCC2)CCN1S(=O)(=O)c1cc(F)c(Oc2ccc(Cl)cc2)c(F)c1` [Entry 27] the value was below 50 nM; for `CS(=O)(=O)N1CCN(S(=O)(=O)c2cc(F)c(Oc3ccc(Cl)cc3)c(F)c2)[C@@H](C(=O)NO)C1` [Entry 28], below 50 nM; for `COCCN1CCN(S(=O)(=O)c2cc(F)c(Oc3ccc(Cl)cc3)c(F)c2)[C@@H](C(=O)NO)C1` [Entry 29], below 50 nM.

In turn, `O=C(NO)[C@H]1CN(C(=O)N2CCOCC2)CCN1S(=O)(=O)c1cc(F)c(Oc2ccc(Cl)cc2)c(F)c1` [Entry 30] showed a half-inhibitory concentration (IC50) below 50 nM. For `O=C(NO)[C@H]1CN(C(=O)C(=O)N2CCOCC2)CCN1S(=O)(=O)c1cc(F)c(Oc2ccc(Cl)cc2)c(F)c1` [Entry 31] the value was below 50 nM; for `O=C(NO)[C@H]1CN(C(=O)OCc2ccccc2)CCN1S(=O)(=O)c1cc(F)c(Oc2ccc(Cl)cc2)c(F)c1` [Entry 32], below 50 nM. For `O=C(CCl)NC(=O)N1CCN(S(=O)(=O)c2cc(F)c(Oc3ccc(Cl)cc3)c(F)c2)[C@@H](C(=O)NO)C1` [Entry 33] the value was below 50 nM; for `O=C(NO)[C@H]1CN(S(=O)(=O)Cc2ccncc2)CCN1S(=O)(=O)c1cc(F)c(Oc2ccc(Cl)cc2)c(F)c1` [Entry 34], below 50 nM; for `O=C(NO)[C@H]1CN(C(=O)C(=O)N2CCCCC2)CCN1S(=O)(=O)c1cc(F)c(Oc2ccc(Cl)cc2)c(F)c1` [Entry 35], below 50 nM.

On to `CN(C)S(=O)(=O)N1CCN(S(=O)(=O)c2cc(F)c(Oc3ccc(Cl)cc3)c(F)c2)[C@@H](C(=O)NO)C1` [Entry 36], for which the IC50 was below 50 nM. The figure for `O=C(NO)[C@H]1CN(S(=O)(=O)NC(=O)N2CCCCC2)CCN1S(=O)(=O)c1cc(F)c(Oc2ccc(Cl)cc2)c(F)c1` [Entry 37] is below 50 nM.

Regarding `O=C(NO)[C@H]1CN(S(=O)(=O)NC(=O)N2CCOCC2)CCN1S(=O)(=O)c1cc(F)c(Oc2ccc(Cl)cc2)c(F)c1` [Entry 38], the IC50 is below 50 nM. For `CN1CCN(C(=O)NS(=O)(=O)N2CCN(S(=O)(=O)c3cc(F)c(Oc4ccc(Cl)cc4)c(F)c3)[C@@H](C(=O)NO)C2)CC1` [Entry 39] the value was below 50 nM; for `COCCOC(=O)N1CCN(S(=O)(=O)c2cc(F)c(Oc3ccccc3)c(F)c2)[C@@H](C(=O)NO)C1` [Entry 40], below 50 nM; for `O=C(NO)[C@H]1CN(S(=O)(=O)c2cc(F)c(O)c(F)c2)CCN1S(=O)(=O)c1cc(F)c(Oc2ccc(Cl)cc2)c(F)c1` [Entry 41], below 50 nM.

On to `O=C(NO)[C@H]1CN(C(=O)c2ccncc2)CCN1S(=O)(=O)c1cc(F)c(Oc2ccc(Cl)cc2)c(F)c1` [Entry 42], for which the IC50 is below 50 nM.

`CCCCCCC(=O)N1CCN(S(=O)(=O)c2cc(F)c(Oc3ccc(Cl)cc3)c(F)c2)[C@@H](C(=O)NO)C1` [Entry 43] yielded an IC50 below 50 nM. For `CCCC(CCC)C(=O)N1CCN(S(=O)(=O)c2cc(F)c(Oc3ccc(Cl)cc3)c(F)c2)[C@@H](C(=O)NO)C1` [Entry 44] the value was below 50 nM. The figure for `O=C(NO)[C@H]1CN(S(=O)(=O)c2cccnc2O)CCN1S(=O)(=O)c1cc(F)c(Oc2ccc(Cl)cc2)c(F)c1` [Entry 45] is below 50 nM; for `O=C(CN1CCOCC1)NC(=O)N1CCN(S(=O)(=O)c2cc(F)c(Oc3ccc(Cl)cc3)c(F)c2)[C@@H](C(=O)NO)C1` [Entry 46] it is below 50 nM.
